From patent US20060069132A1, “Azolecarboxamide herbicides” (priority 2004, published 2006)

Assays:
barnyardgrass [1] = experiment: Test B flooded paddy test; format: in vivo, Echinochloa crus-galli; conditions: 1000 g ai/ha, scale 0 to 100 (0 no effect, 100 complete control)
Method in brief: (§1)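 Each value is a visual 0–100 response rating taken against controls 13 to 15 days after treatment in the greenhouse. Plants received formulated chemical postemergence at the 1- to 4-leaf stage or, in flooded paddy, at the 2-leaf stage.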

ducksalad [2] = experiment: Test C flooded paddy test; format: in vivo, Heteranthera limosa; conditions: for Plant response rating, Ducksalad: 500 g ai/ha, visual rating after 12 to 14 days
Method: (§2) At the same time, plants selected from these crop and weed species and also winter barley (Hordeum vulgare L.), blackgrass (Alopecurus myosuroides Huds.), canarygrass (Phalaris minor Retz.), chickweed (Stellaria media (L.) Vill.), downy bromegrass (Bromus tectorum L.), green foxtail (Setaria viridis (L.) Beauv.), Italian ryegrass (Lolium multiflorum Lam.), wheat (Triticum aestivum L.), wild oat (Avenafatua L.) and windgrass (Apera spica-venti (L.) Beauv.) were treated with postemergence applications of some of the test chemicals formulated in the same manner. Plants ranged in height from 2 to 18 cm (1- to 4-leaf stage) for postemergence treatments. Plant species in the flooded paddy test consisted of rice (Oryza sativa), smallflower umbrella sedge (Cyperus difformis L.), ducksalad (Heteranthera limosa (Sw.) Willd.) and barnyardgrass (Echinochloa crus-galli (L.) Beauv.) grown to the 2-leaf stage for testing. Treated plants and controls were maintained in a greenhouse for 12 to 14 days, after which time all species were compared to controls and visually evaluated. Plant response ratings, summarized in Table C, are based on a scale of 0 to 100 where 0 is no effect and 100 is complete control. A dash (-) response means no test result.

wheat = experiment: Test B postemergence herbicide test; format: in vivo, Triticum aestivum; set-up: key to Wheat plant response rating: 0 = no effect, 100 = complete control
Method in brief: (§3)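 Greenhouse test; postemergence application to plants at 1–4 leaves (2–18 cm); paddy species at 2 leaves; evaluated visually vs controls at 13–15 days; scale 0–100 (100 = complete control).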

lambsquarters = experiment: Test B pre-/postemergence herbicide test; format: in vivo, Chenopodium album
Method in brief: (§4)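 Response was scored visually 13 to 15 days after treatment against untreated greenhouse controls, 0 meaning no effect and 100 complete control. Formulations (solvent mixture plus surfactant) went onto soil after planting, onto foliage of 1- to 4-leaf plants, and onto 2-leaf plants in a flooded paddy set including rice and barnyardgrass.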

corn = experiment: Test B pre-/postemergence herbicide test; format: in vivo, Zea mays
Method in brief: as §4

blackgrass = experiment: Test B postemergence herbicide test; format: in vivo, Alopecurus myosuroides
Method in brief: as §1

[3] = system: smallflower umbrella sedge; experiment: Test C flooded paddy test; format: in vivo, Cyperus difformis; conditions: for Plant response rating, Sedge, Umbrella: 500 g ai/ha, visual rating after 12 to 14 days
Method: as §2

pigweed = experiment: Test B pre-/postemergence herbicide test; format: in vivo, Amaranthus retroflexus
Method in brief: as §4

large crabgrass = experiment: Test B pre-/postemergence herbicide test; format: in vivo, Digitaria sanguinalis
Method in brief: as §4

barnyardgrass [4] = experiment: Test C flooded paddy test; format: in vivo, Echinochloa crus-galli; conditions: for Plant response rating, Barnyardgrass: 500 g ai/ha, visual rating after 12 to 14 days
Method: as §2

giant foxtail = experiment: Test B pre-/postemergence herbicide test; format: in vivo, Setaria faberi
Method in brief: as §4

morningglory = experiment: Test B pre-/postemergence herbicide test; format: in vivo, Ipomoea coccinea
Method in brief: (§5)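 Evaluation is visual, comparing treated with control plants on a scale where 0 means no effect and 100 means full control. Treatments were preemergence, or postemergence on seedlings 2–18 cm tall, and held 13–15 days in the greenhouse.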

wild oat = experiment: Test B postemergence herbicide test; format: in vivo, Avena fatua
Method in brief: as §3

velvetleaf = experiment: Test B pre-/postemergence herbicide test; format: in vivo, Abutilon theophrasti
Method in brief: as §4

cocklebur = experiment: Test B pre-/postemergence herbicide test; format: in vivo, Xanthium strumarium
Method in brief: as §5

barnyardgrass [5] = experiment: Test B pre-/postemergence herbicide test; format: in vivo, Echinochloa crus-galli
Method in brief: as §5

ducksalad [6] = experiment: Test B flooded paddy test; format: in vivo, Heteranthera limosa; conditions: 1000 g ai/ha, scale 0 to 100 (0 no effect, 100 complete control)
Method in brief: as §1

rice [7] = experiment: Test B flooded paddy test; format: in vivo, Oryza sativa; conditions: 1000 g ai/ha, scale 0 to 100 (0 no effect, 100 complete control)
Method in brief: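 Postemergence plants were sprayed with formulated test chemicals at 2 to 18 cm height (1- to 4-leaf stage); paddy species were grown to the 2-leaf stage. After 13 to 15 days in a greenhouse, injury was rated visually against untreated controls on a 0–100 scale (0 = no effect, 100 = complete control).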

rice [8] = experiment: Test C flooded paddy test; format: in vivo, Oryza sativa; conditions: for Plant response rating, Rice: 500 g ai/ha, visual rating after 12 to 14 days
Method: as §2

Surinam grass = experiment: Test B pre-/postemergence herbicide test; format: in vivo, Urochloa decumbens
Method in brief: as §4

[9] = system: small flower umbrella sedge; experiment: Test B flooded paddy test; format: in vivo, Cyperus difformis; conditions: 1000 g ai/ha, scale 0 to 100 (0 no effect, 100 complete control)
Method in brief: as §1

[10] = 125 g ai/ha, scale 0 to 100 (0 no effect, 100 complete control)
[11] = 250 g ai/ha, scale of 0 to 100, 0 is no effect, 100 is complete control
[12] = scale 0 to 100 (0 no effect, 100 complete control)
[13] = 125 g ai/ha, visual rating, scale 0 (no effect) to 100 (complete control), postemergence
[14] = postemergence, 500 g ai/ha, scale 0 to 100, 0 is no effect, 100 is complete control
[15] = 125 g ai/ha, 0 is no effect, 100 is complete control, preemergence
[16] = 500 g ai/ha, visual rating, 0 = no effect, 100 = complete control, preemergence
[17] = 62 g ai/ha, scale 0 to 100 (0 no effect, 100 complete control)
[18] = Postemergence, 250 g ai/ha, scale 0 (no effect) to 100 (complete control)
[19] = postemergence, 62 g ai/ha, scale 0 to 100

## CCOC(=O)c1ccc(F)c(NC(=O)C2CN(C(C)(C)C)N=C2CC)c1 (racemic) [Compound 335]
Barnyardgrass [1]
  Barnyardgrass plant response rating: 60
Ducksalad [2]; 62 g ai/ha, scale 0 to 100
  Ducksalad plant response rating: 0
Ducksalad [2]; [10]
  Ducksalad plant response rating: 35
Ducksalad [2]; [11]
  Ducksalad plant response rating: 50
Ducksalad [2]; [12]
  Plant response rating, Ducksalad: 70
wheat; [13]
  Wheat plant response rating: 10
wheat; [14]
  Wheat plant response rating: 20
lambsquarters; [15]
  Plant response rating (0 to 100 scale), Lambsquarters: 0
lambsquarters; [13]
  Lambsquarters plant response rating: 10
lambsquarters; [16]
  Plant response rating, Lambsquarters: 10
lambsquarters; [14]
  Lambsquarters plant response rating: 30
corn; [15]
  Plant response rating (0 to 100 scale), Corn: 30
corn; [13]
  Corn plant response rating: 10
corn; [16]
  Plant response rating, Corn: 50
corn; [14]
  Corn plant response rating: 20
blackgrass; [13]
  Blackgrass plant response rating: 10
blackgrass; [14]
  Blackgrass plant response rating: 30
[3]; 62 g ai/ha, scale 0 to 100
  Sedge, Umbrella plant response rating: 45
[3]; [10]
  Sedge, Umbrella plant response rating: 85
[3]; [11]
  Sedge, Umbrella plant response rating: 90
[3]; [12]
  Plant response rating, Sedge, Umbrella: 95
pigweed; [15]
  Plant response rating (0 to 100 scale), Pigweed: 0
pigweed; [13]
  Pigweed plant response rating: 20
pigweed; [16]
  Plant response rating, Pigweed: 10
pigweed; [14]
  Pigweed plant response rating: 70
Large crabgrass; [15]
  Plant response rating (0 to 100 scale), Crabgrass, Large: 50
Large crabgrass; [13]
  Crabgrass, Large plant response rating: 10
Large crabgrass; [16]
  Plant response rating, Crabgrass, Large: 100
Large crabgrass; [14]
  Crabgrass, Large plant response rating: 40
Barnyardgrass [4]; [17]
  Barnyardgrass plant response rating: 10
Barnyardgrass [4]; [10]
  Barnyardgrass plant response rating: 25
Barnyardgrass [4]; [11]
  Barnyardgrass plant response rating: 40
Barnyardgrass [4]; [12]
  Plant response rating, Barnyardgrass: 65
Giant foxtail; [15]
  Plant response rating (0 to 100 scale), Foxtail, Giant: 60
Giant foxtail; [13]
  Foxtail, Giant plant response rating: 20
Giant foxtail; [16]
  Plant response rating, Foxtail, Giant: 90
Giant foxtail; [14]
  Foxtail, Giant plant response rating: 40
morningglory; [15]
  Plant response rating (0 to 100 scale), Morningglory: 0
morningglory; [13]
  Morningglory plant response rating: 10
morningglory; [16]
  Plant response rating, Morningglory: 10
morningglory; [14]
  Morningglory plant response rating: 40
Wild oat; [13]
  Oat, Wild plant response rating: 20
Wild oat; [14]
  Oat, Wild plant response rating: 40
velvetleaf; [15]
  Plant response rating (0 to 100 scale), Velvetleaf: 40
velvetleaf; [13]
  Velvetleaf plant response rating: 30
velvetleaf; [14]
  Velvetleaf plant response rating: 60
cocklebur; [15]
  Plant response rating (0 to 100 scale), Cocklebur: 0
cocklebur; [13]
  Cocklebur plant response rating: 10
cocklebur; [16]
  Plant response rating, Cocklebur: 10
cocklebur; [14]
  Cocklebur plant response rating: 70
Barnyardgrass [5]; [15]
  Plant response rating (0 to 100 scale), Barnyardgrass: 50
Barnyardgrass [5]; [13]
  Barnyardgrass plant response rating: 0
Barnyardgrass [5]; [16]
  Plant response rating, Barnyardgrass: 60
Barnyardgrass [5]; [14]
  Barnyardgrass plant response rating: 50
Ducksalad [6]
  Ducksalad plant response rating: 90
Rice [7]
  Rice plant response rating: 70
Rice [8]; 62 g ai/ha, scale 0 to 100
  Rice plant response rating: 25
Rice [8]; [10]
  Rice plant response rating: 25
Rice [8]; [11]
  Rice plant response rating: 55
Rice [8]; [12]
  Plant response rating, Rice: 55
Surinam grass; [15]
  Plant response rating (0 to 100 scale), Surinam Grass: 30
Surinam grass; [13]
  Surinam Grass plant response rating: 10
Surinam grass; [16]
  Plant response rating, Surinam Grass: 40
Surinam grass; [14]
  Surinam Grass plant response rating: 30
[9]
  Sedge, Umbrella plant response rating: 80

## CCNC(=O)c1cccc(NC(=O)c2cn(C(C)(C)C)nc2C(F)(F)F)c1 [Compound 192]
Barnyardgrass [1]; visual rating, 13 to 15 days
  Barnyardgrass plant response rating: 80
Ducksalad [2]; [17]
  Ducksalad plant response rating: 0
Ducksalad [2]; [10]
  Ducksalad plant response rating: 0
Ducksalad [2]; [11]
  Ducksalad plant response rating: 25
Ducksalad [2]; [12]
  Plant response rating, Ducksalad: 60
wheat; 250 g ai/ha, scale 0 to 100, 0 no effect, 100 complete control, preemergence
  Wheat plant response rating: 10
wheat; [18]
  Wheat plant response rating: 0
wheat; [19]
  Wheat plant response rating: 0
lambsquarters; [18]
  Lambsquarters plant response rating: 80
lambsquarters; [19]
  Lambsquarters plant response rating: 70
corn; [18]
  Corn plant response rating: 10
corn; [19]
  Corn plant response rating: 10
blackgrass; [18]
  Blackgrass plant response rating: 0
blackgrass; [19]
  Blackgrass plant response rating: 0
[3]; [17]
  Sedge, Umbrella plant response rating: 70
[3]; [10]
  Sedge, Umbrella plant response rating: 75
[3]; [11]
  Sedge, Umbrella plant response rating: 85
[3]; [12]
  Plant response rating, Sedge, Umbrella: 90
pigweed; [18]
  Pigweed plant response rating: 60
pigweed; [19]
  Pigweed plant response rating: 30
Large crabgrass; [18]
  Crabgrass, Large plant response rating: 20
Large crabgrass; [19]
  Crabgrass, Large plant response rating: 10
Barnyardgrass [4]; [17]
  Barnyardgrass plant response rating: 0
Barnyardgrass [4]; 125 g ai/ha, scale of 0 to 100, 0 is no effect, 100 is complete control
  Barnyardgrass plant response rating: 0
Barnyardgrass [4]; [11]
  Barnyardgrass plant response rating: 0
Barnyardgrass [4]; [12]
  Plant response rating, Barnyardgrass: 70
Giant foxtail; [18]
  Foxtail, Giant plant response rating: 20
Giant foxtail; [19]
  Foxtail, Giant plant response rating: 10
morningglory; [18]
  Morningglory plant response rating: 100
morningglory; [19]
  Morningglory plant response rating: 60
Wild oat; [18]
  Oat, Wild plant response rating: 20
Wild oat; [19]
  Oat, Wild plant response rating: 10
velvetleaf; [18]
  Velvetleaf plant response rating: 50
velvetleaf; [19]
  Velvetleaf plant response rating: 20
cocklebur; [18]
  Cocklebur plant response rating: 60
cocklebur; [19]
  Cocklebur plant response rating: 0
Barnyardgrass [5]; [18]
  Barnyardgrass plant response rating: 10
Barnyardgrass [5]; [19]
  Barnyardgrass plant response rating: 0
Ducksalad [6]; visual rating, 13 to 15 days
  Ducksalad plant response rating: 80
Rice [7]; visual rating, 13 to 15 days
  Rice plant response rating: 70
Rice [8]; [17]
  Rice plant response rating: 0
Rice [8]; [10]
  Rice plant response rating: 15
Rice [8]; [11]
  Rice plant response rating: 45
Rice [8]; [12]
  Plant response rating, Rice: 70
Surinam grass; [18]
  Surinam Grass plant response rating: 10
Surinam grass; [19]
  Surinam Grass plant response rating: 10
[9]; visual rating, 13 to 15 days
  Sedge, Umbrella plant response rating: 80
